Data taken from patent US10946096B2, “Nitrobenzaldehyde proton release for manipulation of cellular acidosis” (priority 2014, dated 2021).
Where “and” joins values, the source holds several entries; their conditions need not be identical. Identical values can stand only once.

Legend:
MDA-MB-231 cells [1] = test: Optical recording of pHi (DCFDA) in MDA-MB-231 cells before/after UV flash photolysis of NBA; assay type: cell-based, human
Experimental: Optical Recording of pHi MDA-MB-231. DCFDA stock solution was diluted to a concentration of 10 μM in a 3 mL rat aCSF solution. MBA-MD-231 cells were flashed every 30 seconds at 495/440 nm for a duration of 900/700 ms, respectively, at 40× magnification and 2 seconds at each wavelength under the 10× magnification. […] Optical recording of pHi was monitored for a minimum of 10 minutes to represent a steady state.
NBA Load for Focal Acidification of MDA-MB231. Seventy-five μL of NBA stock solution was mixed in 3 mL of rat aCSF and bath applied to MDA-MB-231 cells for 10 minutes. After bath application, cells were washed a minimum of three times with rat aCSF. MDA-MB-231 cells were exposed to 60-30-60 UV light paradigm. After each exposure, pH was monitored for 2 minutes to quantify pH, acidification.

MCF-7 cells [2] = test: Optical recording of pHi (DCFDA) in MCF-7 cells before/after UV flash photolysis of NBA; assay type: cell-based, human
Experimental: Optical Recording of pH, MCF-7. DCFDA stock solution was diluted to a concentration of 10 μM in a 3 mL rat aCSF solution. MCF-7 cells were flashed every 30 seconds at 495/440 nm for a duration of 900/700 ms, respectively, at 40× magnification and 2 seconds at each wavelength under the 10× magnification. […] Optical recording of pHi was monitored for a minimum of 10 minutes to represent a steady state.
NBA Load for Focal Acidification of MCF-7. Seventy-five μL of NBA stock solution was mixed in 3 mL of rat aCSF and bath applied to MCF-7 cells for 10 minutes. After bath application, cells were washed a minimum of three times with rat aCSF. MCF-7 cells were exposed to 60-30-60 UV light paradigm. After each exposure, pH was monitored for 2 minutes to quantify pHi acidification.

PC12 cells [3] = test: Optical recording of pHi (DCFDA) in PC12 cells before/after UV flash photolysis of NBA; assay type: cell-based, Rat
Experimental: Calibrating and Measuring pH with DCFDA. For ratiometric pH, measurements, PC12 cells were loaded with the pH-sensitive dye Carboxy-DCFDA (10 μM in rat aCSF). Nigericin was titrated to a pH of 2.0, 4.0, 5.0, 6.0, 7.0 or 8.0. The emitted fluorescence of DCFDA was recorded from cells at each of the titrated pH solutions. […] Each ratio from individual cells (n=421) was recorded for each pH. A curve of best fit was created (R^2=93.02) and used for the conversion of fluorescence to pHi.
Optic Recording of pHi PC12. DCFDA stock solution was diluted to a concentration of 10 μM in a 3 mL rat aCSF solution. PC12 cells were flashed every 30 second at 495/440 nm for a duration of 900/700 ms, respectively, at 40× magnification and 2 seconds at each wavelength under the 10× magnification. Cells were washed three times with rat aCSF after 10 minutes and prior to recording fluorescence to monitor steady state.
NBA Loading for Focal Acidification of PC12. Seventy-five μL of NBA stock solution was mixed in 3 mL of rat aCSF and bath applied to PC12 cells for 10 minutes. After bath application, cells were washed a minimum of three times with rat aCSF. PC12 cells were exposed to UV light using various flash paradigms. After each exposure, pH was monitored for 2 minutes to quantify pH, acidification.
In our experiments PC12 cells were loaded with the ratiometric fluorescent dye DCFDA. DCFDA was utilized for measuring changes in the intracellular pH (pHi) of a cell over a broad pH range from 2.0 to 7.0 (FIG. 3A, 3B). In this embodiment of the invention, NBA (1 mM) was bath applied at room temperature to PC12 cells and allowed to passively diffuse across the cell membrane. Emitted fluorescence ratios were taken prior to photoactivation of NBA with a flash photolysis paradigm (FIG. 15). Emitted fluorescence ratios were also recorded after NBA was exposed to a wavelength of 350 nm UV light. Using fluorescence microscopy, we can optically record and quantify changes in pHi.

MDA-MB-231 tumors [4] = test: Tumor growth of MDA-MB-231-GFP tumors in nude mice after one-time NBA phototherapy; assay type: in vivo; conditions: one-time 0.1 ml 1 mM NBA into tumor + 405 nm 60-30-60 illumination, P<0.05
Experimental: We injected the aggressive triple negative breast cancer MDA-MB-231-GFP (2×10^6 cells) into the mammary fat pad of 5 week old female nude mice. Tumors appeared after approximately one week following injection. Treatment was initiated once the tumors reached and maintained a length of 5 mm for two consecutive days. The mice received a one-time treatment of either a control injection if 0.1 ml of aCSF to the tumor or 0.1 ml of NBA (1 mM) followed by photoactivation. The NBA/photoactivation treatment was conducted as follows: one hour after NBA injection, the animal was anesthetized (1.5-4% isoflurane) prior to the insertion of a 200 μm fiber optic cannula into the tumor mass. The interior of the tumor was illuminated with 405 nm light (80-85 mW) via a ceramic cannula using the same illumination paradigm which was effective in vitro, specifically 60 seconds of illumination, 60 seconds of no illumination, 30 seconds of illumination, 60 seconds of no illumination, and 60 seconds of illumination. This paradigm is referred to as a “60-30-60” illumination paradigm.
Tumors were measured daily in order to calculate changes in tumor volume using the formula: Tumor Volume(TV)=[…]
The percent change in tumor volume was calculated by normalizing the percent change to the tumor volume recorded on the day of treatment. […]

MCF-7 cells [5] = test: Cell death quantification MCF-7 (blebbing and/or Annexin V); assay type: cell-based, human
Experimental: Apoptosis Indicator. The apoptosis indicator Annexin V Alexa Fluor 568 was stored in a solution containing 25 mM HEPES, 140 mM NaCl, 1 mM EDTA, pH 7.4, plus 0.1% bovine serum albumin (BSA). A 10 μL of stock Annexin V Alexa Fluor 568 was diluted in 2 mL of binding buffer. The binding buffer consisted of: 10 mM HEPES, 140 mM NaCl, and 2.5 mM CaCl2, at a pH of 7.4. Cell Death Quantification MCF-7. After UV flash paradigm, the presences of blebs were observed and recordings of the pH in the intrablebular inflationary space (pHb) were acquired using the DCFDA fluorescence as they expanded. […] We quantified blebs as cellular death based on previously published findings which described blebbing as an irreversible death process (Andrade et al., Biology of the Cell, 2010, 102(1):25-35). Control Experiments. Controls in each experiment were performed by moving 10 mm or more away from the UV or 980 nm exposed region. Recordings of pHi were performed to detect if NBA or the nanoparticle affected the cell or inadvertently uncaged hydrogens in the periphery of the plate. Detection of apoptosis and/or blebs was performed using Annexin V Alexa Fluor 568 and DCFDA optical recording. Control experiments were performed in the following conditions: UV alone, time alone, and NBA alone. Each one of the control experiments was performed for a minimum of 3 hours.

MDA-MB-231 cells [6] = test: Cell death quantification MDA-MB-231 (blebbing and/or Annexin V); assay type: cell-based, human; conditions: in less than three hours following NBA flash photolysis
Experimental: Cell Death Quantification MDA-MB-231. One hour after the UV flash paradigm to induce intracellular acidosis, the cells were lightly washed and the media was replaced with the phosphatidylserine indicator Annexin V Alexa Fluor 568. This solution was made using 10 μL of the stock solution and diluted in 2 ml of rat aCSF. Fifteen minutes was allowed for membrane binding, then fluorescence was monitored for the next hour or until all cells were expressing apoptosis. As with MCF-7 cells, we quantified blebs as cellular death based on previously published findings which described blebbing as an irreversible death process (Andrade et al., Biology of the Cell, 2010, 102(1):25-35).

MDA-MB-231 tumors [7] = test: Survival of nude mice with MDA-MB-231 tumors after one-time NBA phototherapy; assay type: in vivo
Experimental: The described inventive technique is effective in increasing the duration of survival in animals with cancer in vivo. […] NBA was injected into the established triple negative breast cancer MDA-MB-231 tumors of 6 week old nude mice. One hour was permitted to allow adequate diffusion of the NBA into the intracellular space of the cancer cells. Following this one-hour diffusion period, the tumors were exposed to 405 nm photo-activating light (85 mW) for a 60-30-60 excitation paradigm (described previously).
Following their one-time treatment of either NBA with photo-activation or control aCSF, mice were monitored and euthanized in accordance with the Humane Endpoints approved by the University of Texas at San Antonio Institutional Animal Care and Use Committee (IACUC). The control aCSF treated mice (n=4) survived for an average of 16.5±1.66 days from the day of treatment, with survival days from treatment ranging from 14 to 19 days. In contrast, the one-time NBA treated mice survived for 35.2±5.70 days from the day of treatment (FIG. 22). The NBA treated mice survival ranged from 18 to 50 days from treatment.

[8] = tested on: in vitro tadpole brainstem; conditions: 10 μM NBA, entire in vitro tadpole brainstem; cited from earlier work
PC12 cells [9] = test: Cell death quantification PC12 (Annexin V Alexa Fluor 568); assay type: cell-based, Rat
Experimental: Apoptosis Indicator. The apoptosis indicator Annexin V Alexa Fluor 568 was stored in a solution containing 25 mM HEPES, 140 mM NaCl, 1 mM EDTA, pH 7.4, plus 0.1% bovine serum albumin (BSA). A 10 μL of stock Annexin V Alexa Fluor 568 was diluted in 2 mL of binding buffer. The binding buffer consisted of: 10 mM HEPES, 140 mM NaCl, and 2.5 mM CaCl2, at a pH of 7.4.
Cell Death Quantification PC12. One hour after the UV flash paradigm to induce intracellular acidosis, the cells were lightly washed and the media was replaced with the phosphatidylserine indicator Annexin V Alexa Fluor 568. This solution was made using 10 μL of the stock solution and diluted in 2 ml of rat aCSF. Fifteen minutes was allowed for membrane binding, then fluorescence was monitored for the next hour or until all cells were expressing apoptosis.
Control Experiments. Controls in each experiment were performed by moving 10 mm or more away from the UV or 980 nm exposed region. Recordings of pHi were performed to detect if NBA or the nanoparticle affected the cell or inadvertently uncaged hydrogens in the periphery of the plate. Detection of apoptosis and/or blebs was performed using Annexin V Alexa Fluor 568 and DCFDA optical recording. Control experiments were performed in the following conditions: UV alone, time alone, and NBA alone. Each one of the control experiments was performed for a minimum of 3 hours.

rat ventricular myocytes = conditions: NBA 1 mM, absence of UV exposure; cited from earlier work

SMILES: O=Cc1ccccc1[N+](=O)[O-] [NBA, 2-nitrobenzaldehyde]
- Mean pHi before flash paradigm (MDA-MB-231 cells [1]; MDA-MB-231 cells (n=38), loaded with NBA, before 60-30-60 UV flash): 6.47±0.06
- Mean Δ pHi (MDA-MB-231 cells [1]; MDA-MB-231 cells, NBA, 60-30-60 UV flash): 3.68±0.18 pH units
- Mean pHi after flash paradigm (MDA-MB-231 cells [1]; MDA-MB-231 cells, NBA, after 60-30-60 UV flash): 2.78±0.23
- Average pHi drop, first flash (MCF-7 cells [2]; MCF-7 cells (n=13), 60-30-60 UV flash paradigm, flash 1): 0.68
- Average pHi drop, second flash (MCF-7 cells [2]; MCF-7 cells (n=13), 60-30-60 UV flash paradigm, flash 2): 0.35
- Average pHi drop, third flash (MCF-7 cells [2]; MCF-7 cells (n=13), 60-30-60 UV flash paradigm, flash 3): 0.59
- Mean pHi before flash photolysis (MCF-7 cells [2]; MCF-7 cells, 1 mM NBA, 10 μM DCFDA, before 60-30-60 UV flash paradigm): 7.38±0.13 and 7.38
- Mean pHi after flash photolysis (MCF-7 cells [2]; MCF-7 cells, 1 mM NBA, after 60-30-60 UV flash paradigm): 6.22±0.15 and 6.22
- Average pHi drop, first flash (PC12 cells [3]; PC12 cells (n=22), 60-30-60 UV flash paradigm, flash 1): 0.72
- Average pHi drop, second flash (PC12 cells [3]; PC12 cells (n=22), 60-30-60 UV flash paradigm, flash 2): 0.36
- Average pHi drop, third flash (PC12 cells [3]; PC12 cells (n=22), 60-30-60 UV flash paradigm, flash 3): 0.36
- Mean pHi before flash photolysis (PC12 cells [3]; PC12 cells, 1 mM NBA, 10 μM DCFDA, after NBA application and prior to photolysis): 7.55±0.025 and 7.55
- Mean pHi after flash photolysis (PC12 cells [3]; PC12 cells, 1 mM NBA, after 350 nm UV exposure): 6.37±0.03 and 6.37
- Mean change in pHi (Δ pHi) (PC12 cells [3]; PC12 cells, 1 mM NBA, flash photolysis): 1.18 pH units
- Duration of significant reduction in tumor volume vs aCSF control (MDA-MB-231 tumors [4]): up to 13 days
- Percentage of apoptosis, NBA only (MCF-7 cells [5]; MCF-7 cells exposed only to NBA, no UV): 2.3%
- Percentage of death within 2 hours (MCF-7 cells [5]; MCF-7 cells incubated in NBA and exposed to UV, within 2 hours): above 90%
- Average apoptosis over time (MCF-7 cells [5]; MCF-7 cells, 1 mM NBA + 60-30-60 UV flash): 98.3±0.3%
- Cell death (MDA-MB-231 cells [6]): 55.3%
- Mean survival from the day of treatment (MDA-MB-231 tumors [7]; one-time NBA + 405 nm (85 mW) 60-30-60 photo-activation, nude mice): 35.2 ± 5.70 days
- Increase in survivability vs control aCSF (MDA-MB-231 tumors [7]; one-time NBA photo-activation vs aCSF control, P=0.012): 113.3%
- Effect on spontaneous fictive respiratory motor output and central respiratory chemoreceptor responses [8]: no disruption
- Average apoptosis (PC12 cells [9]; NBA + UV flash photolysis): 84.0±1.33%
- Percentage of cells exhibiting apoptosis, NBA alone (PC12 cells [9]; NBA alone, no UV (n=47)): 2.1%
- Effect on diastolic Ca2+, cellular contraction, spatial pHi regulation (rat ventricular myocytes): did not alter
